Results: patent US11053204B2, “Pyrimidinyloxy benzene derivatives as herbicides” (FMC Corporation, priority 2015, dated 2021)

Tests used:
Assay type in all cases: in vivo
[1] = system: ducksalad (Heteranthera limosa); test: Test B flooded paddy test, plant response rating; details: 250 g ai/ha; Flood; scale of 0 to 100 where 0 is no effect and 100 is complete control; 13 to 15 days
In short: (§1)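 Under a constant 3 cm flood, test compounds went directly into the paddy water. Following 13 to 15 days of greenhouse growth, treated species and controls were compared by eye.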

rice (Oryza sativa) = test: Test B flooded paddy test, plant response rating; details: 250 g ai/ha; Flood; scale of 0 to 100 where 0 is no effect and 100 is complete control; 13 to 15 days
In short: as §1

[2] = system: sedge, umbrella (small-flower umbrella sedge, Cyperus difformis); test: Test B flooded paddy test, plant response rating; details: 250 g ai/ha; Flood; scale of 0 to 100 where 0 is no effect and 100 is complete control; 13 to 15 days
In short: as §1

[3] = system: barnyardgrass (Echinochloa crus-galli); test: Test B flooded paddy test, plant response rating; details: 250 g ai/ha; Flood; scale of 0 to 100 where 0 is no effect and 100 is complete control; 13 to 15 days
In short: as §1

kochia (Kochia scoparia) [4] = test: Test A preemergence, visual injury rating; details: 0 to 100 scale (0 no effect, 100 complete control)
In short: (§2)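 Visual injury scored 0–100 (100 = complete control) against untreated controls about 10 days after treatment in a greenhouse. Test chemicals, formulated with surfactant in non-phytotoxic solvent, were sprayed on soil preemergence or on 2-10 cm, one- to two-leaf plants postemergence.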

[5] = system: pigweed (Amaranthus retroflexus); test: Test A preemergence, visual injury rating; details: 0 to 100 scale (0 no effect, 100 complete control)
In short: as §2

[6] = system: Italian ryegrass (Lolium multiflorum); test: Test A preemergence, visual injury rating; details: 0 to 100 scale (0 no effect, 100 complete control)
In short: as §2

[7] = system: ragweed (common ragweed, Ambrosia elatior); test: Test A preemergence, visual injury rating; details: 0 to 100 scale (0 no effect, 100 complete control)
In short: as §2

[8] = system: giant foxtail (Setaria faberii); test: Test A preemergence, visual injury rating; details: 0 to 100 scale (0 no effect, 100 complete control)
In short: as §2

[9] = system: barnyardgrass (Echinochloa crus-galli); test: Test A preemergence, visual injury rating; details: 0 to 100 scale (0 no effect, 100 complete control)
In short: as §2

[10] = system: blackgrass (Alopecurus myosuroides); test: Test A postemergence, visual injury rating; details: 0 is no effect, 100 is complete control; for Blackgrass plant response rating: 125 g ai/ha, 0 to 100 scale, approximately 10 days; for Blackgrass plant response rating (0 to 100 scale): 500 g ai/ha
In short: as §2

kochia (Kochia scoparia) [11] = test: Test A postemergence, visual injury rating; details: 0 is no effect, 100 is complete control; for Kochia plant response rating: 125 g ai/ha, 0 to 100 scale, approximately 10 days; for Kochia plant response rating (0 to 100 scale): 500 g ai/ha
In short: as §2

[12] = system: pigweed (Amaranthus retroflexus); test: Test A postemergence, visual injury rating; details: 0 is no effect, 100 is complete control; for Pigweed plant response rating: 125 g ai/ha, 0 to 100 scale, approximately 10 days; for Pigweed plant response rating (0 to 100 scale): 500 g ai/ha
In short: as §2

[13] = system: galium (catchweed bedstraw, Galium aparine); test: Test A postemergence, visual injury rating; details: 0 is no effect, 100 is complete control; for Galium plant response rating: 125 g ai/ha, 0 to 100 scale, approximately 10 days; for Galium plant response rating (0 to 100 scale): 500 g ai/ha
In short: as §2

[14] = system: Italian ryegrass (Lolium multiflorum); test: Test A postemergence, visual injury rating; details: 0 is no effect, 100 is complete control; for Ryegrass, Italian plant response rating: 125 g ai/ha, 0 to 100 scale, approximately 10 days; for Ryegrass, Italian plant response rating (0 to 100 scale): 500 g ai/ha
In short: as §2

corn (Zea mays) = test: Test A postemergence, visual injury rating; details: 0 is no effect, 100 is complete control; for Corn plant response rating: 125 g ai/ha, 0 to 100 scale, approximately 10 days; for Corn plant response rating (0 to 100 scale): 500 g ai/ha
In short: as §2

[15] = system: ragweed (common ragweed, Ambrosia elatior); test: Test A postemergence, visual injury rating; details: 0 is no effect, 100 is complete control; for Ragweed plant response rating: 125 g ai/ha, 0 to 100 scale, approximately 10 days; for Ragweed plant response rating (0 to 100 scale): 500 g ai/ha
In short: as §2

[16] = system: giant foxtail (Setaria faberii); test: Test A postemergence, visual injury rating; details: 0 is no effect, 100 is complete control; for Foxtail, Giant plant response rating: 125 g ai/ha, 0 to 100 scale, approximately 10 days; for Foxtail, Giant plant response rating (0 to 100 scale): 500 g ai/ha
In short: as §2

[17] = system: wheat (Triticum aestivum); test: Test A postemergence, visual injury rating; details: 0 is no effect, 100 is complete control; for Wheat plant response rating: 125 g ai/ha, 0 to 100 scale, approximately 10 days; for Wheat plant response rating (0 to 100 scale): 500 g ai/ha
In short: as §2

[18] = system: barnyardgrass (Echinochloa crus-galli); test: Test A postemergence, visual injury rating; details: 0 is no effect, 100 is complete control; for Barnyardgrass plant response rating: 125 g ai/ha, 0 to 100 scale, approximately 10 days; for Barnyardgrass plant response rating (0 to 100 scale): 500 g ai/ha
In short: as §2

Structure (SMILES) | Plant response rating, Ducksalad [1] | Plant response rating, Rice (rice (Oryza sativa)) | Plant response rating, Sedge, Umbrella [2] | Plant response rating, Barnyardgrass [3] | Kochia plant response rating (kochia (Kochia scoparia) [4]; 125 g ai/ha) | Kochia plant response rating (kochia (Kochia scoparia) [4]; 500 g ai/ha) | Pigweed plant response rating ([5]; 125 g ai/ha) | Pigweed plant response rating ([5]; 500 g ai/ha) | Ryegrass, Italian plant response rating ([6]; 125 g ai/ha) | Ryegrass, Italian plant response rating ([6]; 500 g ai/ha) | Ragweed plant response rating ([7]; 125 g ai/ha) | Ragweed plant response rating ([7]; 500 g ai/ha) | Foxtail, Giant plant response rating ([8]; 125 g ai/ha) | Foxtail, Giant plant response rating ([8]; 500 g ai/ha) | Barnyardgrass plant response rating ([9]; 125 g ai/ha) | Barnyardgrass plant response rating ([9]; 500 g ai/ha) | Blackgrass plant response rating [10] | Blackgrass plant response rating (0 to 100 scale) [10] | Kochia plant response rating (kochia (Kochia scoparia) [11]) | Kochia plant response rating (0 to 100 scale) (kochia (Kochia scoparia) [11]) | further results
CCSC(=O)c1c(Br)cccc1Oc1ncc(Cl)cn1 [Compound 83] | 80 | 0 | 80 | 0 | 0 | 0 | 30 | 90 | 0 | 0 | 0 | 0 | 90 | 100 | 30 | 90 | 0 | 40 | 30 | 90 | Pigweed plant response rating [12]: 30; Pigweed plant response rating (0 to 100 scale) [12]: 70; Galium plant response rating [13]: 30; Galium plant response rating (0 to 100 scale) [13]: 20; Ryegrass, Italian plant response rating [14]: 0; Ryegrass, Italian plant response rating (0 to 100 scale) [14]: 0; Corn plant response rating (corn (Zea mays)): 20; Corn plant response rating (0 to 100 scale) (corn (Zea mays)): 30; Ragweed plant response rating [15]: 0; Ragweed plant response rating (0 to 100 scale) [15]: 0; Foxtail, Giant plant response rating [16]: 0; Foxtail, Giant plant response rating (0 to 100 scale) [16]: 80; Wheat plant response rating [17]: 0; Wheat plant response rating (0 to 100 scale) [17]: 0; Barnyardgrass plant response rating [18]: 0; Barnyardgrass plant response rating (0 to 100 scale) [18]: 90
CCC(C)OC(=O)c1c(Br)cccc1Oc1ncc(Cl)cn1 (stereo not drawn) [Compound 84] | 0 | 0 | 0 | 0 | 0 | 0 | 0 | 100 | 0 | 0 | 0 | 0 | 0 | 100 | 0 | 90 | 0 | 0 | 30 | 70 | Pigweed plant response rating [12]: 30; Pigweed plant response rating (0 to 100 scale) [12]: 70; Galium plant response rating [13]: 30; Galium plant response rating (0 to 100 scale) [13]: 40; Ryegrass, Italian plant response rating [14]: 0; Ryegrass, Italian plant response rating (0 to 100 scale) [14]: 0; Corn plant response rating (corn (Zea mays)): 10; Corn plant response rating (0 to 100 scale) (corn (Zea mays)): 40; Ragweed plant response rating [15]: 0; Ragweed plant response rating (0 to 100 scale) [15]: 0; Foxtail, Giant plant response rating [16]: 0; Foxtail, Giant plant response rating (0 to 100 scale) [16]: 60; Wheat plant response rating [17]: 0; Wheat plant response rating (0 to 100 scale) [17]: 20; Barnyardgrass plant response rating [18]: 0; Barnyardgrass plant response rating (0 to 100 scale) [18]: 40
